Experimental data: patent US20250041379A1, “METHODS AND COMPOSITIONS FOR THE TREATMENT OF CANCER” (Vigeo Therapeutics, Inc., priority 2021, published 2025)
No end group written: not given here.

What was measured:
[1] = VT1021 concentration in plasma (pharmacokinetic profile) in the clinical study; assay type: in vivo, human; details: phase I/II study
Text: FIG. 2 is a chart showing the pharmacokinetic profile of VT1021 concentration in the plasma of human patients with glioblastoma (red), pancreatic cancer (green), ovarian cancer (blue), other (purple) or not reported (red) over time following the initial administration at time 0. “Others” and “Not reported” refer to subjects enrolled in the clinical trial with solid tumor indications other than GBM, Panc, and Ovarian cancers.
FIG. 7 is a chart showing the pharmacokinetic profile of VT1021 concentration in the plasma of male (solid line) and female (dotted line) glioblastoma patients over time following the initial administration at time 0.
In the “expansion stage” of the VT1021-01 Study, subjects diagnosed with recurrent GBM, pancreatic cancer, ovarian cancer and other solid tumors were enrolled. […] The correlation between days on study and tumor shrinkage versus expression profile of CD36 and CD47 was analyzed (FIG. 4). The general expression profile of CD36 and CD47 has been assessed by IHC on Tumor Tissue Microarrays (TMAs), which contain biopsy samples collected from pancreatic cancer patients. […]
The blood samples were collected from GBM subjects in the expansion phase, who were treated by VT1021 at 11.8 mg/kg, twice weekly, by IV infusion. VT1021 levels were measured and analyzed among male and female subjects (FIG. 7). […]

pancreatic cancer = assay: Phase I/II clinical study: tumor burden, stable disease and days on study in pancreatic cancer (Part 2); assay type: in vivo, human
Description: VT1021 was evaluated in a recently completed phase I/II open-label, multicenter, dose escalation (Part 1) and expansion (Part 2) clinical study in advanced, refractory, solid tumors including pancreatic cancer (NCT03364400). Seven subjects with pancreatic cancer were dosed in Part 1 and 32 were dosed in Part 2, 17 of which were considered evaluable as having completed ≥1 cycle of VT1021 treatment and tumor imaging during cycle 2. […] In the “expansion stage” of the VT1021-01 Study, subjects diagnosed with recurrent GBM, pancreatic cancer, ovarian cancer and other solid tumors were enrolled. They were treated with VT1021 at 11.8 mg/kg, twice weekly by IV infusion. The blood samples were collected from the clinical study at pre-treatment, 0, 2, 4, 6 hours post treatment to measure the levels of VT1021 (FIG. 2). The tumor biopsy samples prior to treatment and during treatment were collected from the clinical study to measure expression levels of biomarkers including CD36 and CD47, as well as cell surface markers for immune cell populations in the TME by immunohistochemistry assays (FIG. 3, FIG. 4, FIG. 5). The correlation between days on study and tumor shrinkage versus expression profile of CD36 and CD47 was analyzed (FIG. 4). The general expression profile of CD36 and CD47 has been assessed by IHC on Tumor Tissue Microarrays (TMAs), which contain biopsy samples collected from pancreatic cancer patients. TMAs were purchased from commercial sources, not related to the VT1021-01 clinical study. […] A waterfall plot illustrates changes in tumor burden for 14 subjects in Part 2 with pancreatic cancer with measurable disease.

cyclic DWLPK (also: cyclic, mode of cyclisation not given here) [VT1021, 5-amino acid cyclic peptide from prosaposin; Tsp-1-inducing agent]
pharmacokinetic profile ([1]; solid tumors including pancreatic cancer): predictable | pharmacokinetic profile ([1]; solid tumors including rGBM): predictable | subjects with stable disease (pancreatic cancer; Part 2 pancreatic cancer, all dually high CD36 and CD47): 3 subjects | subjects with reduction of tumor burden (pancreatic cancer; of 14 Part 2 pancreatic cancer subjects with measurable disease, all dually high CD36 and CD47): 5 subjects | average time remained on the study (pancreatic cancer; the 5 pancreatic cancer subjects with reduction of tumor burden (dually high)): 105 days
